The values that follow come from patent US7652015B2, “Kinase inhibitors” (Eli Lilly and Company, priority 2006, dated 2010).

As usually defined, the IC50 is the midpoint of a concentration-inhibition curve.

Counter-ions that a name gives are not always drawn.

For the first test, the system named is p-MAPKAPK2. Briefly: Inhibition of p-MAPKAPK2 in vitro, anisomycin-stimulated RAW 264.7 cells, ELISA. It is filed as cell-based, murine. The settings on record: Mus musculus, RAW264.7; RAW 264.7 cells, 2 hours compound, anisomicin 100 ug/ml 30 minutes; read-out: IC50, inhibition of p-MAPKAPK2 in vitro. As to the method:
RAW 264.7 cells (a murine monocytic/macrophage line ATCC) are seeded at a density of 50,000 cells/well in 96-well plates with RPMI-1640 medium plus 10% fetal bovine serum (FBS) and allowed to settle and adhere to the bottom of the well for 48 hours. After reaching confluence, cells are treated for 2 hours with 10 serial dilutions of different compounds. A control compound is always included. After 2 hours, anisomicin (100 ug/ml) is added and cells are incubated for 30 minutes at 37° C. under a 5% CO2 atmosphere. Then, cells are fixed and treated with hydrogen peroxide in order to remove endogenous peroxidase. Finally, plates are blocked with FBS, washed, and an ELISA assay is carried out by using an antiphospho-MAPKAPK (Thr 334, Cell Signalling, Cat # 3041) antibody and ahP-Conjugated Secondary Antibody. This reaction is detected by using FEMTO (Pierce) which is an enhanced chemiluminiscent substrate ahP that results in rapid kinetic light output and high signal intensity.
For orientation: An ELISA detects its analyte on a solid surface through an enzyme-linked reagent.
For the compound `Cc1ccc(-n2nc(C(C)(C)C)cc2NC(=O)Nc2ccc(N3CCN(C(=O)c4c(Cl)cccc4Cl)CC3)nc2C)cc1` [Example 45, 1-(5-tert-Butyl-2-p-tolyl-2H-pyrazol-3-yl)-3-{6-[4-(2,6-dichloro-benzoyl)-piperazin-1-yl]-2-methyl-pyridin-3-yl}-urea methanesulfonate], the IC50 was found to be 6.7 nM.
Still for that read-out and setting: with `Cc1ccc(-n2nc(C(C)(C)C)cc2NC(=O)Nc2ccc(OC3CCN(C(=O)C4(C)CC4)CC3)nc2C)cc1` [Example 77, 1-(5-tert-Butyl-2-p-tolyl-2H-pyrazol-3-yl)-3-{2-methyl-6-[1-(1-methyl-cyclopropanecarbonyl)-piperidin-4-yloxy]-pyridin-3-yl}-urea] the figure was 176 nM.
With `Cc1ccc(-n2nc(C(C)(C)C)cc2NC(=O)Nc2ccc(OC3CCN(C(=O)c4ccc(Cl)s4)CC3)nc2)cc1` [Example 92, 1-(5-tert-Butyl-2-p-tolyl-2H-pyrazol-3-yl)-3-{6-[1-(5-chloro-thiophene-2-carbonyl)-piperidin-4-yloxy]-pyridin-3-yl}-urea], the half-maximal inhibitory concentration (IC50) is 16 nM.
On the same count and under the same terms, with `Cc1ccc(-n2nc(C(C)(C)C)cc2NC(=O)Nc2cnc(N3CCN(C(=O)C4(C)CC4)CC3)cc2C)cc1` [Example 128, 1-(5-tert-Butyl-2-p-tolyl-2H-pyrazol-3-yl)-3-{4-methyl-6-[4-(1-methyl-cyclopropanecarbonyl)-piperazin-1-yl]-pyridin-3-yl}-urea mesylate] the figure was 286 nM.

The test system of the next test is p-MAPKAPK2. The description is as above. Format: cell-based, murine. The settings on record: Mus musculus, RAW264.7, in the presence of 100% serum.
On to `Cc1ccc(-n2nc(C(C)(C)C)cc2NC(=O)Nc2ccc(N3CCN(C(=O)c4ccccc4Cl)CC3)nc2C)cn1` [Example 111, 1-[5-tert-Butyl-2-(6-methyl-pyridin-3-yl)-2H-pyrazol-3-yl]-3-{6-[4-(2-chloro-benzoyl)-piperazin-1-yl]-2-methyl-pyridin-3-yl}-urea mesylate], for which the IC50 was at most 500 nM.
With `Cc1ccc(-n2nc(C3(C(F)(F)F)CC3)cc2NC(=O)Nc2ccc(N3CCN(C(=O)c4sccc4C)CC3)nc2C)cn1` [Example 113, 1-{2-Methyl-6-[4-(3-methyl-thiophene-2-carbonyl)-piperazin-1-yl]-pyridin-3-yl}-3-[2-(6-methyl-pyridin-3-yl)-5-(1-trifluoromethyl-cyclopropyl)-2H-pyrazol-3-yl]-urea mesylate], the 50% inhibitory concentration (IC50) was at most 500 nM.
Take `Cc1ccc(-n2nc(C3(C(F)(F)F)CC3)cc2NC(=O)Nc2ccc(N3CCN(C(=O)c4ccccc4Cl)CC3)nc2C)cn1` [Example 114, 1-{6-[4-(2-Chloro-benzoyl)-piperazin-1-yl]-2-methyl-pyridin-3-yl}-3-[2-(6-methyl-pyridin-3-yl)-5-(1-trifluoromethyl-cyclopropyl)-2H-pyrazol-3-yl]-urea mesylate]: the IC50 was at most 500 nM.
For `Cc1ccc(-n2nc(C3(C(F)(F)F)CC3)cc2NC(=O)Nc2ccc(N3CCN(C(=O)c4ccccc4F)CC3)nc2C)cn1` [Example 115, 1-{6-[4-(2-Fluoro-benzoyl)-piperazin-1-yl]-2-methyl-pyridin-3-yl}-3-[2-(6-methyl-pyridin-3-yl)-5-(1-trifluoromethyl-cyclopropyl)-2H-pyrazol-3-yl]-urea mesylate], the IC50 was at most 500 nM.
For the compound `Cc1ccc(-n2nc(C(C)(CF)CF)cc2NC(=O)Nc2ccc(N3CCN(C(=O)c4ccccc4C)CC3)nc2C)cc1` [Example 119, 1-[5-(2-Fluoro-1-fluoromethyl-1-methyl-ethyl)-2-p-tolyl-2H-pyrazol-3-yl]-3-{2-methyl-6-[4-(2-methyl-benzoyl)-piperazin-1-yl]-pyridin-3-yl}-urea], the IC50 was at most 500 nM.
